Several values for one entry are separate records, joined by “and”; a condition that tells them apart may be missing. Equal values may be shown once. Toxic doses and inconclusive results are not listed. How the source made its calls: active means survival T/C of 150% or more; inactive means T/C below 125% in these data.
Tested on: P388 leukemia ip, CD2F1 mice, survival T/C
Assay: NCI In Vivo Anticancer Drug Screen. Data for tumor model P388 Leukemia (intraperitoneal) in CD2F1 (CDF1) mice
Details: endpoint: median survival time, higher = longer survival
How it was run: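 Mice carrying the transplanted tumor received test compound or vehicle. Survival was recorded in each group, and the value is the treated-group measurement divided by that of the vehicle-treated control group.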

[1] = dose: 50.0 mg/kg/injection, schedule: Q01DX005 (ip), vehicle: saline with Tween-80
[2] = dose: 100.0 mg/kg/injection, schedule: Q01DX005 (ip), vehicle: saline with Tween-80
[3] = dose: 200.0 mg/kg/injection, schedule: Q01DX005 (ip), vehicle: saline with Tween-80
[4] = dose: 50.0 mg/kg/injection, schedule: Q01DX009 (ip), vehicle: saline with Tween-80
[5] = dose: 100.0 mg/kg/injection, schedule: Q01DX009 (ip), vehicle: saline with Tween-80
[6] = dose: 200.0 mg/kg/injection, schedule: Q01DX009 (ip), vehicle: saline with Tween-80
[7] = dose: 25.0 mg/kg/injection, schedule: Q01DX009 (ip), vehicle: saline with Tween-80

Measured: T/C

COC1=C(N)C(=O)c2nc(-c3nc(C=O)c(C)c(-c4ccc(OC)c(OC)c4O)c3N)ccc2C1=O
inactive: dose: 0.18 mg/kg/injection, schedule: Q01DX009 (ip), vehicle: DMSO 116 % of control | dose: 0.3 mg/kg/injection, schedule: Q01DX009 (ip), vehicle: DMSO 115 % of control | dose: 0.3 mg/kg/injection, schedule: Q01DX009 (ip), vehicle: other 115 % of control | dose: 0.33 mg/kg/injection, schedule: Q01DX009 (ip), vehicle: DMSO 104 % of control | dose: 0.55 mg/kg/injection, schedule: Q01DX009 (ip), vehicle: DMSO 124 % of control | dose: 0.55 mg/kg/injection, schedule: Q01DX009 (ip), vehicle: other 124 % of control | dose: 0.62 mg/kg/injection, schedule: Q01DX009 (ip), vehicle: other 120 % of control | dose: 0.63 mg/kg/injection, schedule: Q01DX009 (ip), vehicle: DMSO 110 % of control | dose: 0.93 mg/kg/injection, schedule: Q01DX009 (ip), vehicle: DMSO 121 % of control | dose: 1.05 mg/kg/injection, schedule: Q01DX009 (ip), vehicle: DMSO 124 % of control | dose: 1.05 mg/kg/injection, schedule: Q01DX009 (ip), vehicle: other 124 % of control | dose: 1.24 mg/kg/injection, schedule: Q01DX009 (ip), vehicle: other 110 % of control | dose: 1.53 mg/kg/injection, schedule: Q01DX009 (ip), vehicle: DMSO 118 % of control | dose: 1.55 mg/kg/injection, schedule: Q01DX009 (ip), vehicle: DMSO 124 % of control | dose: 1.55 mg/kg/injection, schedule: Q01DX009 (ip), vehicle: other 99 % of control and 100 % of control and 124 % of control | dose: 2.05 mg/kg/injection, schedule: Q01DX009 (ip), vehicle: DMSO 110 % of control | dose: 2.05 mg/kg/injection, schedule: Q01DX009 (ip), vehicle: other 110 % of control | dose: 3.03 mg/kg/injection, schedule: Q01DX009 (ip), vehicle: DMSO 84 % of control | dose: 3.1 mg/kg/injection, schedule: Q01DX009 (ip), vehicle: other 121 % of control | dose: 4.96 mg/kg/injection, schedule: Q01DX009 (ip), vehicle: other 92 % of control and 93 % of control | dose: 6.03 mg/kg/injection, schedule: Q01DX009 (ip), vehicle: DMSO 94 % of control | dose: 6.05 mg/kg/injection, schedule: Q01DX009 (ip), vehicle: DMSO 124 % of control | dose: 6.05 mg/kg/injection, schedule: Q01DX009 (ip), vehicle: other 124 % of control | dose: 6.2 mg/kg/injection, schedule: Q01DX009 (ip), vehicle: other 110 % of control | dose: 12.4 mg/kg/injection, schedule: Q01DX009 (ip), vehicle: other 56 % of control

N#CCc1ccccc1Br
inactive: [1] 93 % of control | [2] 101 % of control

O=C(Nc1nnc(-c2cc(=O)c3cc(Cl)ccc3o2)s1)c1ccccc1
inactive: [1] 92 % of control | [2] 87 % of control and 88 % of control | [3] 99 % of control and 89 % of control

O=C1NC(=O)C2(CC3CCCC(C2)N3c2ccccc2)N1 (stereo unspecified)
inactive: dose: 100.0 mg/kg/injection, schedule: Q04DX003 (ip), vehicle: DMSO 95 % of control | dose: 200.0 mg/kg/injection, schedule: Q04DX003 (ip), vehicle: DMSO 89 % of control | dose: 400.0 mg/kg/injection, schedule: Q04DX003 (ip), vehicle: DMSO 91 % of control

Clc1ccc(C(Cn2ccnc2)OCc2c(Cl)cccc2Cl)cc1 (stereo unspecified)
inactive: [4] 102 % of control | [5] 97 % of control

[CH3][Sn]1([CH3])[O]C(=O)c2ccccc2C(=O)[O]1
inactive: dose: 12.5 mg/kg/injection, schedule: Q01DX001 (ip), vehicle: Klucel (hydroxypropylcellulose) (HPC) 102 % of control and 111 % of control | dose: 25.0 mg/kg/injection, schedule: Q01DX001 (ip), vehicle: Klucel (hydroxypropylcellulose) (HPC) 101 % of control and 102 % of control | dose: 50.0 mg/kg/injection, schedule: Q01DX001 (ip), vehicle: Klucel (hydroxypropylcellulose) (HPC) 100 % of control

COc1cc(-c2ccc(NC(=O)CC(C)=O)c(OC)c2)ccc1NC(=O)CC(C)=O
inactive: dose: 100.0 mg/kg/injection, schedule: Q04DX003 (ip), vehicle: saline with Tween-80 100 % of control | dose: 200.0 mg/kg/injection, schedule: Q04DX003 (ip), vehicle: saline with Tween-80 100 % of control | dose: 400.0 mg/kg/injection, schedule: Q04DX003 (ip), vehicle: saline with Tween-80 90 % of control

NC(=O)N(c1ccccc1)c1ccccn1
inactive: dose: 60.0 mg/kg/injection, schedule: Q01DX005 (ip), vehicle: saline with Tween-80 97 % of control | dose: 120.0 mg/kg/injection, schedule: Q01DX005 (ip), vehicle: saline with Tween-80 97 % of control | dose: 240.0 mg/kg/injection, schedule: Q01DX005 (ip), vehicle: saline with Tween-80 94 % of control

c1cc(-c2nnc3ccccn23)c2c(-c3nnc4ccccn34)cccc2c1
inactive: [4] 100 % of control | [5] 97 % of control | [6] 97 % of control

CCC(O)CC1OC2(CCC1C)CC1OC(=O)/C=C\C(C)(O)C(O)C(C)C(O)C(OC3CC(OC)C(O)C(C)O3)C(O)C(C)(O)CCC/C=C/C3CC(C)COC3(O)CC(O2)C1C (stereo unspecified)
inactive: dose: 1.0 mg/kg/injection, schedule: Q01DX005 (ip), vehicle: saline + alcohol 100 % of control | dose: 2.0 mg/kg/injection, schedule: Q01DX005 (ip), vehicle: saline + alcohol 104 % of control

C=CC(=O)N1CCCC1C(=O)O (stereo unspecified)
inactive: dose: 50.0 mg/kg/injection, schedule: Q01DX009 (ip), vehicle: saline 100 % of control | dose: 100.0 mg/kg/injection, schedule: Q01DX009 (ip), vehicle: saline 109 % of control | dose: 200.0 mg/kg/injection, schedule: Q01DX009 (ip), vehicle: saline 100 % of control

COc1cc2nc(C)n(C)c(=O)c2cc1OC
inactive: dose: 12.5 mg/kg/injection, schedule: Q01DX009 (ip), vehicle: saline with Tween-80 95 % of control | [7] 116 % of control | [4] 101 % of control

CC1(C)N=C(N)N=C(N)N1c1cccc(C(=O)O)c1
inactive: dose: 25.0 mg/kg/injection, schedule: Q01DX005 (ip), vehicle: Klucel (hydroxypropylcellulose) (HPC) 117 % of control | dose: 50.0 mg/kg/injection, schedule: Q01DX005 (ip), vehicle: Klucel (hydroxypropylcellulose) (HPC) 100 % of control | dose: 100.0 mg/kg/injection, schedule: Q01DX005 (ip), vehicle: Klucel (hydroxypropylcellulose) (HPC) 107 % of control

O=C(/C(O)=C/c1ccccc1)c1ccccc1
inactive: dose: 100.0 mg/kg/injection, schedule: Q04DX002 (ip), vehicle: saline with Tween-80 93 % of control | dose: 200.0 mg/kg/injection, schedule: Q04DX002 (ip), vehicle: saline with Tween-80 92 % of control | dose: 400.0 mg/kg/injection, schedule: Q04DX002 (ip), vehicle: saline with Tween-80 92 % of control

Cc1c(C)[n+]([O-])c(-c2ccc(N(C)C)cc2)n1O
inactive: [4] 100 % of control | [5] 91 % of control | [6] 94 % of control

O=C(NNc1ccccc1)N(Nc1ccccc1)C(=O)Nc1ccccc1
inactive: [1] 99 % of control | [2] 91 % of control | [3] 99 % of control

CCOC(=O)Nc1nc2ccc(SC#N)cc2s1
inactive: dose: 6.25 mg/kg/injection, schedule: Q01DX009 (ip), vehicle: Klucel (hydroxypropylcellulose) (HPC) 107 % of control | dose: 12.5 mg/kg/injection, schedule: Q01DX009 (ip), vehicle: Klucel (hydroxypropylcellulose) (HPC) 107 % of control | dose: 25.0 mg/kg/injection, schedule: Q01DX009 (ip), vehicle: Klucel (hydroxypropylcellulose) (HPC) 96 % of control

O=CNc1c(Nc2ccccc2)nc(-c2ccccc2)[nH]c1=O
inactive: dose: 15.0 mg/kg/injection, schedule: Q01DX009 (ip), vehicle: saline with Tween-80 105 % of control | dose: 30.0 mg/kg/injection, schedule: Q01DX009 (ip), vehicle: saline with Tween-80 91 % of control | dose: 60.0 mg/kg/injection, schedule: Q01DX009 (ip), vehicle: saline with Tween-80 91 % of control

C/C(=N\NC(=S)N1CCN(c2ccccn2)CC1)c1ccccn1
inactive: dose: 12.5 mg/kg/injection, schedule: Q01DX005 (ip), vehicle: water 103 % of control | dose: 25.0 mg/kg/injection, schedule: Q01DX005 (ip), vehicle: water 108 % of control

NC(C(=O)O)c1ccc(CO)cc1 (stereo unspecified)
inactive: [7] 100 % of control | dose: 50.0 mg/kg/injection, schedule: Q01DX005 (ip), vehicle: water 86 % of control | [4] 86 % of control | dose: 100.0 mg/kg/injection, schedule: Q01DX005 (ip), vehicle: water 107 % of control | [5] 106 % of control | dose: 200.0 mg/kg/injection, schedule: Q01DX005 (ip), vehicle: water 97 % of control

— PubChem BioAssay AID330 (DTP/NCI, 2004)
